In patent publication US12202835B2, “Substituted aromatic ring-linked dioxinoquinazolines and dioxinoquinolines as kinase inhibitors” (BEIJING SCITECH-MQ PHARMACEUTICALS LIMITED, priority 2018, dated 2025) one finds IC50 data, which are given here for nine compounds.

The subject of the assay is Ba/F3 LMNA-NTRK1-G595R cells. In words: Assay for inhibiting the proliferation of Ba/F3 LMNA-NTRK1-G595R cells (CCK-8). Type of assay: cell-based. The note with it: Mus musculus, BaF3. The method, boiled down:
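Cells seeded in 96-well plates overnight, then exposed 72 h to 9 three-fold dilutions of compound (0.25% DMSO final). Viability by CCK-8 (1-2 h at 37° C., OD 450 nm), survival normalized to untreated and cell-free blanks; IC50 by curve fitting.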
In the case of `COc1cc2nccc(Oc3ccc(NC(=O)c4cn(C)c(=O)n(-c5ccc(F)cc5)c4=O)cc3)c2c2c1OCCO2` [Example 145, N-(4-((5-methoxy-2,3-dihydro-[1,4]dioxino[2,3-f]quinolin-10-yl)oxy)phenyl)-3-(4-fluorophenyl)-1-methyl-2,4-dioxo-1,2,3,4-tetrahydropyrimidine-5-carboxamide], the IC50 (as a rule, the point on the concentration scale where inhibition reaches its midpoint) was more than 1000 nM.

For the compound `CCn1cc(C(=O)Nc2ccc(Oc3ccnc4cc(OC)c5c(c34)OCCO5)cc2)c(=O)n(-c2ccc(F)cc2)c1=O` [Example 146, N-(4-((5-methoxy-2,3-dihydro-[1,4]dioxino[2,3-f]quinolin-10-yl)oxy)phenyl)-3-(4-fluorophenyl)-1-ethyl-2,4-dioxo-1,2,3,4-tetrahydropyrimidine-5-carboxamide], the IC50 was 200 to 1000 nM.

With `COCCOc1cc2nccc(Oc3ccc(NC(=O)c4cn(C)c(=O)n(-c5ccc(F)cc5)c4=O)cc3)c2c2c1OCCO2` [Example 147, N-(4-((5-(2-methoxyethoxy)-2,3-dihydro-[1,4]dioxino[2,3-f]quinolin-10-yl)oxy)phenyl)-3-(4-fluorophenyl)-1-methyl-2,4-dioxo-1,2,3,4-tetrahydropyrimidine-5-carboxamide], the IC50 fell in the range of 50 to 200 nM.

`CCn1cc(C(=O)Nc2ccc(Oc3ccnc4cc(OCCOC)c5c(c34)OCCO5)cc2)c(=O)n(-c2ccc(F)cc2)c1=O` [Example 148, N-(4-((5-(2-methoxyethoxy)-2,3-dihydro-[1,4]dioxino[2,3-f]quinolin-10-yl)oxy)phenyl)-3-(4-fluorophenyl)-1-ethyl-2,4-dioxo-1,2,3,4-tetrahydropyrimidine-5-carboxamide] showed an IC50 of 200 to 1000 nM.

In turn, `Cn1cc(C(=O)Nc2ccc(Oc3ccnc4cc(OCC(C)(C)O)c5c(c34)OCCO5)cc2)c(=O)n(-c2ccc(F)cc2)c1=O` [Example 149, N-(4-((5-(2-hydroxy-2-methylpropoxy)-2,3-dihydro-[1,4]dioxino[2,3-f]quinolin-10-yl)oxy)phenyl)-3-(4-fluorophenyl)-1-methyl-2,4-dioxo-1,2,3,4-tetrahydropyrimidine-5-carboxamide] returned an IC50 of more than 1000 nM.

Compound `CCn1cc(C(=O)Nc2ccc(Oc3ccnc4cc(OCC(C)(C)O)c5c(c34)OCCO5)cc2)c(=O)n(-c2ccc(F)cc2)c1=O` [Example 150, N-(4-((5-(2-hydroxy-2-methylpropoxy)-2,3-dihydro-[1,4]dioxino[2,3-f]quinolin-10-yl)oxy)phenyl)-3-(4-fluorophenyl)-1-ethyl-2,4-dioxo-1,2,3,4-tetrahydropyrimidine-5-carboxamide] had an IC50 of more than 1000 nM.

As for `COc1cc2nccc(Oc3ccc(NC(=O)c4cn(C)c(=O)n(-c5ccc(F)cc5)c4=O)c(F)c3)c2c2c1OCCO2` [Example 153, N-(2-fluoro-4-((5-methoxy-2,3-dihydro-[1,4]dioxino[2,3-f]quinolin-10-yl)oxy)phenyl)-3-(4-fluorophenyl)-1-methyl-2,4-dioxo-1,2,3,4-tetrahydropyrimidine-5-carboxamide], the IC50 was not above 50 nM.

Consider `COCCOc1cc2nccc(Oc3ccc(NC(=O)c4cn(C)c(=O)n(-c5ccc(F)cc5)c4=O)c(F)c3)c2c2c1OCCO2` [Example 155, N-(2-fluoro-4-((5-(2-methoxyethoxy)-2,3-dihydro-[1,4]dioxino[2,3-f]quinolin-10-yl)oxy)phenyl)-3-(4-fluorophenyl)-1-methyl-2,4-dioxo-1,2,3,4-tetrahydropyrimidine-5-carboxamide], for which the IC50 was not above 50 nM.

On to `CCn1cc(C(=O)Nc2ccc(Oc3ccnc4cc(OCCOC)c5c(c34)OCCO5)cc2F)c(=O)n(-c2ccc(F)cc2)c1=O` [Example 156, N-(2-fluoro-4-((5-(2-methoxyethoxy)-2,3-dihydro-[1,4]dioxino[2,3-f]quinolin-10-yl)oxy)phenyl)-3-(4-fluorophenyl)-1-ethyl-2,4-dioxo-1,2,3,4-tetrahydropyrimidine-5-carboxamide], for which the IC50 was 50 to 200 nM.
